Test results taken from patent US5668134A, “Method for preventing or reducing photosensitivity and/or phototoxicity reactions to medications” (priority 1994, dated 1997).
Counter-ions that a name gives are not always drawn.

Test system: bacterial enzyme DNA gyrase
Assay: Interference with bacterial DNA gyrase
Assay type: biochemical

With `CCn1cc(C(=O)O)c(=O)c2cc(F)c(N3CCNC(C)C3)c(F)c21` (racemic) [lomefloxacin HCl, monohydrochloride salt of (±)-1-ethyl-6,8-difluoro-1,4-dihydro-7-(3-methyl-1-piperazinyl)-4-oxo-3-quinolinecarboxylic acid] the “mechanism of bactericidal action” value was “interference with the activity of the bacterial enzyme DNA gyrase”.
